Assays:
[1] = biological target: human nerepinephrine (NET) transporter (Homo sapiens, UniProt P23975); experiment: Selectivity panel of 164 targets: NET; conditions: 10 μM in duplicate; one of only 4 hits among 164 targets
Description: The methods used here for each target were adapted from the scientific literature to maximize reliability and reproducibility.

ob/ob mice [2] = experiment: Effect of a SERCA agonist on the level of blood glucose; format: in vivo, mouse; conditions: 10 or 50 mg/kg i.p. once a day for 5 days
Protocol: Fasting glucose was measured at baseline and 10 hours after the administration of the test compound. Glucose levels were measured in blood samples drawn from the tail vein using the OneTouch Ultra 2 Meter (LifeScan, Inc.).

[3] = system: 6-OHDA lesioned Wistar rats; experiment: Rat unilateral 6-OHDA model of Parkinson's disease, stepping test; format: in vivo; conditions: D11, 10 mg/kg IP once daily for 15 days; 6-OHDA/Vehicle 1.19±0.24 steps
Protocol: (§1) Fifty adult male Wistar rats were used. The rats from different groups (G1 to G5) were randomized. At the beginning of the study, the rats were about 5 weeks old and naive to previous administration of any drug.
(§2) A stereotaxic injection of 6-OHDA (G2 to G5) or saline (G1: sham group) was performed to induce a unilateral dopaminergic lesion on day 0 (D0). Surgery was performed on D0 under ketamine (50 mg/kg) and xylazine (10 mg/kg). The rats of G2 to G5 received a unilateral injection of 6-OHDA (6 μL) in the left substantia nigra pars compacta. Jouve et al., J. Neurosci. 2010, 30, 9919-9928. The rats of the G1 sham group were injected with saline. During surgery, local analgesia was achieved using subcutaneous injections of lidocaine. At the end of surgery, the rats were treated with buprenorphine (0.05 mg/kg, S.C.).
The stepping test was performed after IT test, both before the 6-OHDA lesion induction on D0 and on D11. Around D−6, the stepping test was performed eight consecutive times for the right paw of each animal to obtain baseline values. On D11, the stepping test was performed one hour after the rats were dosed. Each rat was hold by an experimenter and only one of the two forelimbs was left free to move above a plane surface and the other was held with the paw touching the table. The rats were then to be moved slowly forward by the experimenter. The number of adjusting steps was countered for the right paw. Olsson et al., J. Neurosci. 1995, 15, 3863-3875.
L-DOPA and benserazide (a peripheric DOPA decarboxylase inhibitor) were prepared together as a single solution containing 0.9% NaCl and 0.1% ascorbic acid.
All the dosings were given via the IP route, once daily, Sunday excluded.

[4] = Pharmacokinetics of compound A12 in Sprague Dawley rats; format: in vivo, rat; conditions: oral, 2 mg/kg P.O.
Protocol: Pharmacokinetics of a test compound, compound A12, was assessed in Sprague Dawley rats. The compound was formulated at 1 mg/mL in DMSO/Tween 80/water (10/10/80, vol/vol/vol) and dosed at 1 mg/kg intravenous (i.v.) or 2 mg/kg by oral gavage (P.O.) in triplicate. Blood was drawn at 5 min, 15 min, 30 min, 1 hr, 2 hrs, 4 hrs, 6 hrs, and 8 hrs into EDTA containing tubes and plasma was harvested by centrifugation. Plasma (25 μL) was treated with acetonitrile (125 μL) containing an internal standard. The sample was then centrifuged for 5 min at 4,000 rpm in a tabletop centrifuge and the filtrate was collected. The filtrate was injected onto a Thermo Betasil C18 HPLC column 5μ (50×2.1 mm). Mobile Phase A was water with 0.1% formic acid. Mobile Phase B was acetonitrile with 0.1% formic acid. Separation was achieved using a gradient of 90% A/10% B to 5% A/95% B over 7 min. An API Sciex 4000 equipped with a turbo ion spray source was used for all analytical measurements. A positive ion MRM method was developed. Peak areas of the product ion were measured against the peak areas of the internal standard. Data was fit using WinNonLin (Pharsight Corporation, Mountain View, Calif.).

APP-PS1 mice = experiment: Alzheimer's disease model, Aβ deposition (Thioflavin S staining); format: in vivo, mouse; conditions: 10 mg/kg ip for 4 weeks, vs saline
Protocol: PS1/APP mice (PS1M146V and APPSWE) (Howlett et al., Brain Res. 2004, 1017, 130-136) were used. Age-matched NTg controls were on the same background strain (C57bl6/J9).
Mice were transcardially perfused with ice-cold PBS (3 mL) followed by 4% paraformaldehyde (5 mL). Brains were extracted and fixed overnight in 30% sucrose-cryoprotectant solution. Coronal hippocampal sections 40 μm thick were cut on a cryostat and collected in TBS (0.1 M Tris, 0.9% saline, pH 7.4).
Free-floating hippocampal sections were washed with TBS (4×3 min). The sections were soaked in 0.5% thioflavin S (in 50/50 ethyl alcohol/distilled water, Sigma-Aldrich) for 10 min, followed by 2×3 min washes with 50% ethyl alcohol. Sections were washed again with TBS (2×3 min), mounted with minimal drying, and coverslipped with anti-fade mounting medium PVA-DABCO for microscopy.
Confocal images of immunolabeled tissue were obtained using 4× and 10× objective lenses on the Olympus Fluoview confocal microscope. Density of amyloid plaques was quantified by averaging the percent area staining positive (thresholded above background staining, as determined by software parameters and experimenter confirmation) within the hippocampus and cortex from 3-5 sections from each experimental animal using MetaMorph Software (Molecular Devices). […]

[5] = system: 6-OHDA lesioned Wistar rats; experiment: Rat unilateral 6-OHDA model of Parkinson's disease, initiation time (IT) test; format: in vivo; conditions: D11, 10 mg/kg IP once daily for 15 days, t test, vs 6-OHDA/Vehicle
Protocol: as §1, §2
The IT test was performed both before the 6-OHDA lesion induction on D0 and on day 11 (D11) after the 6-OHDA lesion induction. Around six days (D−6) before the 6-OHDA lesion induction, the IT test was performed eight consecutive times for each limb of each rat to obtain baseline values. On D11, the IT test was performed one hour after the rats were dosed. For every test, only one of the two forelimbs of each rat was left free to move and the time that is necessary to initiate the movement toward a plane surface was recorded using 180 sec as break-off point. […]

ob/ob mice [6] = experiment: Glucose tolerance test (GTT); format: in vivo, mouse; conditions: day 7 post-injection, compared with vehicle
Protocol: Both glucose (GTT) and insulin (ITT) tolerance tests were performed following a 10-hr fast and an additional 2-hr after CDNs injection with baseline blood glucose measurement taken before the beginning of the test. For the GTT, D-glucose dissolved in 0.9% NaCl was delivered intraperitoneally at a dose of 1 g/kg. The blood glucose level was measured 0, 15, 30, 60, 90, and 120 min after glucose administration. For the ITT, insulin was administered intraperitoneally at a dose of 1 IU/kg. The blood glucose level was measured 0, 15, 30, 60, 90, and 120 min after insulin administration. Glucose levels were measured in blood samples drawn from the tail vein using OneTouch Ultra 2 Meter (LifeScan, Inc.).

Sequence of human nerepinephrine (NET) transporter (P23975 whole entry): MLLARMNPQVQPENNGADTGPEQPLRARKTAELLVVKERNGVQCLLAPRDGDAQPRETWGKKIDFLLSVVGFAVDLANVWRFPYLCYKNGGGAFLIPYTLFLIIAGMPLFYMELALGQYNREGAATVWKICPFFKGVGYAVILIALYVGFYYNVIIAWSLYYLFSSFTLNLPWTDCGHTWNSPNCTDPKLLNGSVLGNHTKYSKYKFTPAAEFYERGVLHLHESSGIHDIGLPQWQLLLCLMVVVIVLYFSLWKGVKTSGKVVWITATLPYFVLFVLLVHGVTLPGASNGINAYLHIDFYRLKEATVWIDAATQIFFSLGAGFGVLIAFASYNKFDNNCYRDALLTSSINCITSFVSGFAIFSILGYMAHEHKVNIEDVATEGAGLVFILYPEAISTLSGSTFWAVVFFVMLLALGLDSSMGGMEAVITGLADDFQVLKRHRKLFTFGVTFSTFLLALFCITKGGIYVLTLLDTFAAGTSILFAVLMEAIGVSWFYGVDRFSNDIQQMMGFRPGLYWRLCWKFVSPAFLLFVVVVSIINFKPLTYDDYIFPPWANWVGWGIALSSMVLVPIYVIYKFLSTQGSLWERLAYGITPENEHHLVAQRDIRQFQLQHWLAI

For Cc1ccc2cccc(NC(=O)c3ccc(OC(C)C)cc3)c2n1 [Compound A12, 4-Isopropoxy-N-(2-methylquinolin-8-yl)benzamide], which “response against human nerepinephrine (NET) transporter” value [1] is on record?
The value was “significant responses”.

What about the fasting blood glucose (ob/ob mice [2]) of the same compound?
Its fasting blood glucose is “significantly lowered blood glucose as early as day 2”.

And the “maintenance of lower glucose level after last injection” value (ob/ob mice [2])?
The value was “maintained a lower glucose level, to a level identical to lean mice, for over a week after the last injection”.

What about the “number of adjusting steps” value [3] of the same compound?
Its value is 6.94±0.86 steps.

And the T112 [4]?
The T112 was 1.17 h.

And the “amyloid plaques stained with Thioflavin S” value (APP-PS1 mice)?
The value was “reduced”.

And the “akinesia measured in the IT test” value [5]?
Its value is “statistically significant improvement”.

And the “hyperglycemic response to the i.p. glucose challenge (GTT)” value (ob/ob mice [6])?
Its value is “significantly reduced”.
